Test [1] concerns the target T1, baculovirus-expressed ALK (Homo sapiens, UniProt Q9UM73).
T1 construct: host or cells: baculovirus expression system
Description: ALK Kinase Assay (ELISA-type, time-resolved fluorescence). Conditions: 1 μM ATP (Km level); read-out: ALK Activity (ALK Kinase Inhibition, IC50). Format: biochemical. The gist of the method: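 Plates coated with phospholipase C-γ substrate (10 μg/mL in TBS); reaction started with 30 ng/ml ALK and run 15 min at 37° C. Phosphorylated substrate detected with Eu-N1-labeled PT66 antibody. IC50 from sigmoidal variable-slope fit of percent inhibition vs log concentration.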
On the technique in general: An ELISA detects its analyte on a solid surface through an enzyme-linked reagent.

In test [2] the target is T2, c-Met (cytoplasmic domain) (Homo sapiens, UniProt P08581).
T2 construct: 10 ng/mL c-Met (cytoplasmic domain, Invitrogen Corporation #PV3143); purchased Invitrogen Corporation PV3143
T2 sequence (P08581 956-1390 limits assumed): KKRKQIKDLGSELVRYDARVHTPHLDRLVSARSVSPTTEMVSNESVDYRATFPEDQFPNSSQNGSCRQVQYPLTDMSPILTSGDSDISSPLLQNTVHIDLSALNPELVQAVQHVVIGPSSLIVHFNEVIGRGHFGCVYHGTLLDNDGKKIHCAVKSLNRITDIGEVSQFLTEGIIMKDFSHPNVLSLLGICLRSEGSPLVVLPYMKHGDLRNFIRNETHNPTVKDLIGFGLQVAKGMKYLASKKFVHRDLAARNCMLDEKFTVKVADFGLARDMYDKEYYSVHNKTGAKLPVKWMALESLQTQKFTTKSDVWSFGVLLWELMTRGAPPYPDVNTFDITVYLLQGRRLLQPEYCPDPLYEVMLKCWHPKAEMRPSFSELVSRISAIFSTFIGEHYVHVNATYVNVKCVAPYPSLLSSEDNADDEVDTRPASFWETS
Briefly: c-Met Kinase Assay (same methods as for ALK, with modifications). The format is biochemical. Conditions: 1 μM ATP (Km level); read-out: cMet Activity (c-Met Kinase Inhibition, IC50). In short, it runs like this: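 Plates were coated with phospholipase C-γ substrate (10 μg/mL) in TBS, and the reaction was started with 10 ng/mL c-Met cytoplasmic domain and run 15 min at 37 °C. Phosphoproduct was detected with Eu-N1-labelled PT66 antibody. IC50 came from a variable-slope sigmoidal fit of percent inhibition vs log concentration.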

SMILES strings stand for the structures. A value given as a limit tells only on which side of the number the result lay.

From patent publication US8148391B2 (Cephalon, Inc., priority 2006, dated 2012) come the findings set out here.

T1 sequence (Q9UM73 19-1620): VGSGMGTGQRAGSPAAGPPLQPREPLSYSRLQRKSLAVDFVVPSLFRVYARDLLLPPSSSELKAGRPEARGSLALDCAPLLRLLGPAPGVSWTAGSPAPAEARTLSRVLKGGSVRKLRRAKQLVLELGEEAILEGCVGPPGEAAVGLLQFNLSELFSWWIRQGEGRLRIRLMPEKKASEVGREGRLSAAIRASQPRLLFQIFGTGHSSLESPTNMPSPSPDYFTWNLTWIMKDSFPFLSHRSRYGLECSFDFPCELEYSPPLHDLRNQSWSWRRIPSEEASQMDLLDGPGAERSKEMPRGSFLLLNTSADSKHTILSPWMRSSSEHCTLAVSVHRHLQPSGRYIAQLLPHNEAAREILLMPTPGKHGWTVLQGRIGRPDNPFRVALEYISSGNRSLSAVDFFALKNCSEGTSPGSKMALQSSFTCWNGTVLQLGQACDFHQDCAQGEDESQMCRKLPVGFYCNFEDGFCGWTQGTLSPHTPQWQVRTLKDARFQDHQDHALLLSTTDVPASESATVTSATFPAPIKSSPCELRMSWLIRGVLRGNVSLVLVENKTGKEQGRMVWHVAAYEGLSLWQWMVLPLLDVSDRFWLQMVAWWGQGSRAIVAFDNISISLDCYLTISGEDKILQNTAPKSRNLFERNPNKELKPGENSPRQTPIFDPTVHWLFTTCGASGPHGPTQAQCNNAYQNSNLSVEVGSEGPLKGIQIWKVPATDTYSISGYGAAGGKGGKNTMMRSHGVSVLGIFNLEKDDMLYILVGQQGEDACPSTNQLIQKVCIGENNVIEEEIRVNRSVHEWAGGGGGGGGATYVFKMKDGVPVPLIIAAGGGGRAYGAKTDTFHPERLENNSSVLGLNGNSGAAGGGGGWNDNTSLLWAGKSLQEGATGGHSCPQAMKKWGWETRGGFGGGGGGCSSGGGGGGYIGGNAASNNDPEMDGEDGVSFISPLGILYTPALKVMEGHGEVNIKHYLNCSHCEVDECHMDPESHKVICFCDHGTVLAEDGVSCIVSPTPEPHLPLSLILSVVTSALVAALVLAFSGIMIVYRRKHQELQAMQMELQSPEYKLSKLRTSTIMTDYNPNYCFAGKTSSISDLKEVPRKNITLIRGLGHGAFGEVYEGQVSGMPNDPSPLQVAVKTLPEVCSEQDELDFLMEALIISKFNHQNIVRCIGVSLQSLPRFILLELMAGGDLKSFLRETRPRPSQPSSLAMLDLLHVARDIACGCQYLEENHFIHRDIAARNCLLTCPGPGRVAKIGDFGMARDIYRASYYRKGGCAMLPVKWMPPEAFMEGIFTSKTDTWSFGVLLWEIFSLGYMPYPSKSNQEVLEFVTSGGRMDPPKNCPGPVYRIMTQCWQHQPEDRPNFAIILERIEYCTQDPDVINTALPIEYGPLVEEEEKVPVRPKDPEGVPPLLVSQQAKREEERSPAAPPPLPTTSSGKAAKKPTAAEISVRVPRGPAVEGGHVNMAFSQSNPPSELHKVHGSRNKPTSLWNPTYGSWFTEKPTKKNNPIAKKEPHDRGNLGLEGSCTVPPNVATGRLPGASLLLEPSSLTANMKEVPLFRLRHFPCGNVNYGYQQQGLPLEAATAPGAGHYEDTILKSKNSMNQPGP

By IC50 is commonly meant the point on the concentration scale where inhibition reaches its midpoint. With `COCCN(C)C1CCc2ccc(Nc3ncc(Cl)c(N[C@@H]4CCCC[C@H]4NS(C)(=O)=O)n3)c(OC)c2CC1` (stereo partly drawn) [Example 702, N-[(1R,2R)-2-(5-Chloro-2-{1-methoxy-7-[(2-methoxy-ethyl)-methyl-amino]-6,7,8,9-tetrahydro-5H-benzocyclohepten-2-ylamino}-pyrimidin-4-ylamino)-cyclohexyl]-methanesulfonamide], the half-inhibitory concentration (IC50) is under 100 nM in test [1] and over 10000 nM in test [2].

With `COc1c(Nc2ncc(Cl)c(Nc3ccccc3S(=O)(=O)N3CCC(O)C3)n2)ccc2c1CCC(NCCO)CC2` (stereo not drawn) [Example 703, 1-(2-{5-Chloro-2-[7-(2-hydroxy-ethylamino)-1-methoxy-6,7,8,9-tetrahydro-5H-benzocyclohepten-2-ylamino]-pyrimidin-4-ylamino}-benzenesulfonyl)-pyrrolidin-3-ol], the IC50 in test [1] is under 100 nM; in test [2], 100 to 1000 nM.

As to `COc1c(Nc2ncc(Cl)c(Nc3ccccc3S(=O)(=O)N3CCCC3)n2)ccc2c1CCC(NCCO)CC2` (stereo not drawn) [Example 704, 2-(2-{5-Chloro-4-[2-(pyrrolidine-1-sulfonyl)-phenylamino]-pyrimidin-2-ylamino}-1-methoxy-6,7,8,9-tetrahydro-5H-benzocyclohepten-7-ylamino)-ethanol], the IC50 was under 100 nM in test [1] and 100 to 1000 nM in test [2].

As to `COc1cc(N2CCOCC2)ccc1Nc1nc(Nc2ccc3c(c2OC)CCC(NCCO)CC3)ncc1Cl` (stereo not drawn) [Example 705, 2-{2-[5-Chloro-4-(2-methoxy-4-morpholin-4-yl-phenylamino)-pyrimidin-2-ylamino]-1-methoxy-6,7,8,9-tetrahydro-5H-benzocyclohepten-7-ylamino}-ethanol], the IC50 in test [1] was under 100 nM; in test [2], over 10000 nM.

On to `COCCN1CCOc2ccc(Nc3ncc(Cl)c(N[C@@H]4CCCC[C@H]4NS(C)(=O)=O)n3)cc2C1` [Example 711, N-((1R,2R)-2-{5-Chloro-2-[4-(2-methoxy-ethyl)-2,3,4,5-tetrahydro-benzo[f][1,4]oxazepin-7-ylamino]-pyrimidin-4-ylamino}-cyclohexyl)methanesulfonamide], for which the results for the IC50 in test [1] and in test [2] were under 100 nM and 100 to 1000 nM, respectively.

As for `CCN1CCN(CC)c2cc(Nc3ncc(Cl)c(Nc4ccc(N5CCOCC5)cc4OC)n3)ccc2C1` [Example 712, 5-Chloro-N*2*-(1,4-diethyl-2,3,4,5-tetrahydro-1H-benzo[e][1,4]diazepin-8-yl)-N*4*-(2-methoxy-4-morpholin-4-yl-phenyl)-pyrimidin-2,4-diamine], the IC50 in test [1] was under 100 nM; in test [2], 1000 to 10000 nM.

As for `CCN1CCN(CC)c2cc(Nc3ncc(Cl)c(Nc4ccccc4C(=O)OCCOC)n3)ccc2C1` [Example 713, 2-[5-Chloro-2-(1,4-diethyl-2,3,4,5-tetrahydro-1H-benzo[e][1,4]diazepin-8-ylamino)-pyrimidin-4-ylamino]-benzoic acid 2-methoxy-ethyl ester], the figures for the IC50 in test [1] and in test [2] were under 100 nM and 1000 to 10000 nM, respectively.

In the case of `CCN1CCN(CC)c2cc(Nc3ncc(Cl)c(N[C@@H]4[C@H](C(N)=O)[C@H]5C=C[C@@H]4C5)n3)ccc2C1` [Example 714, (2-exo,3-exo)-3-[5-Chloro-2-(1,4-diethyl-2,3,4,5-tetrahydro-1H-benzo[e][1,4]diazepin-8-ylamino)-pyrimidin-4-ylamino]-bicyclo[2.2.1}hept-5-ene-2-carboxylic acid amide], the figures for the half-inhibitory concentration (IC50) in test [1] and in test [2] were under 100 nM and 1000 to 10000 nM, respectively.

For `CCN1CCN(CC)c2cc(Nc3ncc(Cl)c(Nc4ccccc4-c4nccn4C)n3)ccc2C1` [Example 715, 5-Chloro-N*2*-(1,4-diethyl-2,3,4,5-tetrahydro-1H-benzo[e][1,4]diazepin-8-yl)-N*4*-[2-(1-methyl-1H-imidazol-2-yl)-phenyl]-pyrimidine-2,4-diamine], the half-inhibitory concentration (IC50) was under 100 nM in test [1] and 100 to 1000 nM in test [2].
